Molecular target: T1, b-Raf(V600E) (Homo sapiens, UniProt P15056, V600E)
T1 construct: made in house
Test: Raf/Mek Amplified Luminescence Proximity Homogeneous Assay (Alpha Screen), b-Raf(V600E)
Type: biochemical
Conditions: mutant b-Raf(V600E), read-out: mut-b-RAF (IC50 in uM)
Summary of the method: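 IC50 derived by non-linear regression from AlphaScreen luminescence of phospho-MEK (anti-p-MEK antibody). Reaction: ~4 pM b-Raf(V600E), ~10 nM kinase-dead biotinylated Mek, 60 min compound pre-incubation, then 3 h with ATP at room temperature in pH 7.5 Tris/MgCl2/DTT buffer, quenched with EDTA.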

T1 sequence (P15056 whole entry V600E): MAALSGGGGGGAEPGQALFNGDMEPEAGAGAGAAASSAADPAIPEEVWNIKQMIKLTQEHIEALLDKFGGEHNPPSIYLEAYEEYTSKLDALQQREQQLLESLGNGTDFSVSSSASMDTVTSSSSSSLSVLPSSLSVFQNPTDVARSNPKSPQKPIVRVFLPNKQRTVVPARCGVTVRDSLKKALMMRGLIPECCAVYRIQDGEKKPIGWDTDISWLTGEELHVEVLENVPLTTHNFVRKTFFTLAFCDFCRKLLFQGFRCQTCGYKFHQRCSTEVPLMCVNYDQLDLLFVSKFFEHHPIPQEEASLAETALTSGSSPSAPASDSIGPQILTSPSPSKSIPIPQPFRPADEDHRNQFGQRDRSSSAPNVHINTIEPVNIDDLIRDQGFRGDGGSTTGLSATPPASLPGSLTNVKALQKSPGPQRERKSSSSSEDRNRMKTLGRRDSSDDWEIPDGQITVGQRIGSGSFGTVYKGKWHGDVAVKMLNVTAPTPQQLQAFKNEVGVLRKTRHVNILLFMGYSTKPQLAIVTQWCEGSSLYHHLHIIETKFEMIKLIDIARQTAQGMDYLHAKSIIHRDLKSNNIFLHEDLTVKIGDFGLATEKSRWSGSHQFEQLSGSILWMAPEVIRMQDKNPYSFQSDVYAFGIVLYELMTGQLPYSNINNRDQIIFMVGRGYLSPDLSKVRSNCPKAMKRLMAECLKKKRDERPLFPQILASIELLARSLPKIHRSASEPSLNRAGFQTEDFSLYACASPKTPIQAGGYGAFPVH

Row | SMILES | IC50 [µM]
1 | Nc1ncc(-c2[nH]c(-c3ccc(F)cc3)nc2-c2ccncc2)cc1F [Compound 131, 3-fluoro-5-(2-(4-fluorophenyl)-4-(pyridin-4-yl)-1H-imidazol-5-yl)pyridin-2-amine] | 0.174
2 | COc1cc(-c2[nH]c(-c3cccc(S(N)(=O)=O)c3)nc2-c2ccncc2)cnc1N [Compound 132, 3-(5-(6-amino-5-methoxypyridin-3-yl)-4-(pyridin-4-yl)-1H-imidazol-2-yl)benzenesulfonamide] | 0.001
3 | COc1ccc(Cl)cc1-c1nc(-c2ccncc2)c(-c2cnc(N)c(OC)c2)[nH]1 [Compound 133, 5-(2-(5-chloro-2-methoxyphenyl)-4-(pyridin-4-yl)-1H-imidazol-5-yl)-3-methoxypyridin-2-amine] | 0.0005
4 | COc1cc(-c2[nH]c(-c3ccc(F)cc3)nc2-c2ccoc2)cnc1N [Compound 134, 5-(2-(4-fluorophenyl)-4-(furan-3-yl)-1H-imidazol-5-yl)-3-methoxypyridin-2-amine] | 0.0014
5 | COc1cc(-c2[nH]c(-c3ccccc3Cl)nc2-c2ccncc2)cnc1N [Compound 135, 5-(2-(2-chlorophenyl)-4-(pyridin-4-yl)-1H-imidazol-5-yl)-3-methoxypyridin-2-amine] | 0.0004
6 | COc1cc(-c2[nH]c(-c3ccccc3C(F)(F)F)nc2-c2ccncc2)cnc1N [Compound 136, 3-methoxy-5-(4-(pyridin-4-yl)-2-(2-(trifluoromethyl)phenyl)-1H-imidazol-5-yl)pyridin-2-amine] | 0.0028
7 | COc1cc(-c2[nH]c(-c3ccccc3F)nc2-c2ccncc2)cnc1N [Compound 137, 5-(2-(2-fluorophenyl)-4-(pyridin-4-yl)-1H-imidazol-5-yl)-3-methoxypyridin-2-amine] | 0.0017
8 | COc1cc(-c2[nH]c(-c3ccccc3C)nc2-c2ccncc2)cnc1N [Compound 138, 3-methoxy-5-(4-(pyridin-4-yl)-2-o-tolyl-1H-imidazol-5-yl)pyridin-2-amine] | 0.0012
9 | COc1cc(-c2[nH]c(-c3cc(C)ccc3F)nc2-c2ccncc2)cnc1N [Compound 139, 5-(2-(2-fluoro-5-methylphenyl)-4-(pyridin-4-yl)-1H-imidazol-5-yl)-3-methoxypyridin-2-amine] | 0.0012
10 | COc1cc(-c2nc(C(C)C)[nH]c2-c2ccncc2)cnc1N [Compound 140, 5-(2-isopropyl-5-(pyridin-4-yl)-1H-imidazol-4-yl)-3-methoxypyridin-2-amine] | 0.0016
11 | Fc1ccc(-c2nc(-c3ccncc3)c(-c3ccc4nccn4c3)[nH]2)cc1 [Compound 141, 6-(2-(4-fluorophenyl)-4-(pyridin-4-yl)-1H-imidazol-5-yl)imidazo[1,2-a]pyridine] | 0.618
12 | Fc1ccc(-c2nc(-c3ccncc3)c(-c3cnc4c(c3)OCCN4)[nH]2)cc1 [Compound 142, 7-(2-(4-fluorophenyl)-4-(pyridin-4-yl)-1H-imidazol-5-yl)-3,4-dihydro-2H-pyrido[3,2-v][1,4]oxazine] | 0.382
13 | Nc1ncc(-c2[nH]c(-c3ccccc3)nc2-c2ccncc2)cc1O [Compound 143, 2-amino-5-(2-phenyl-4-(pyridin-4-yl)-1H-imidazol-5-yl)pyridin-3-ol] | 0.215
14 | Fc1ccc(-c2nc(-c3ccncc3)c(-c3cnc4[nH]ccc4c3)[nH]2)cc1 [Compound 144, 5-(2-(4-fluorophenyl)-4-(pyridin-4-yl)-1H-imidazol-5-yl)-1H-pyrrolo[2,3-b]pyridine] | 0.003
15 | COc1cc(-c2[nH]c(-c3ccc(C)cc3F)nc2-c2ccncc2)cnc1N [Compound 145, 5-(2-(2-fluoro-4-methylphenyl)-4-(pyridin-4-yl)-1H-imidazol-5-yl)-3-methoxypyridin-2-amine] | 0.0009
16 | COc1cc(-c2[nH]c(-c3ccc(Cl)cc3F)nc2-c2ccncc2)cnc1N [Compound 146, 5-(2-(4-chloro-2-fluorophenyl)-4-(pyridin-4-yl)-1H-imidazol-5-yl)-3-methoxypyridin-2-amine] | 0.0023
17 | COc1cc(-c2[nH]c(-c3ccc(F)cc3C)nc2-c2ccncc2)cnc1N [Compound 147, 5-(2-(4-fluoro-2-methylphenyl)-4-(pyridin-4-yl)-1H-imidazol-5-yl)-3-methoxypyridin-2-amine] | 0.0016
18 | COc1cc(-c2[nH]c(-c3ccc(F)c(C=O)c3)nc2-c2ccncc2)cnc1N [Compound 148, 5-(5-(6-amino-5-methoxypyridin-3-yl)-4-(pyridin-4-yl)-1H-imidazol-2-yl)-2-fluorobenzaldehyde] | 0.0015
19 | COc1cc(-c2[nH]c(-c3ccc(F)c(C)c3)nc2-c2ccncc2)cnc1N [Compound 149, 5-(2-(4-fluoro-3-methylphenyl)-4-(pyridin-4-yl)-1H-imidazol-5-yl)-3-methoxypyridin-2-amine] | 0.0006

Row | SMILES | IC50 [µM]
20 | Fc1ccc(-c2nc(-c3ccncc3)c(-c3ccnc4[nH]ccc34)[nH]2)cc1 [Compound 150, 4-(2-(4-fluorophenyl)-4-(pyridin-4-yl)-1H-imidazol-5-yl)-1H-pyrrolo[2,3-b]pyridine] | 0.775
21 | Fc1ccc(-c2nc(-c3ccncc3)c(-c3cnc4[nH]cc(Br)c4c3)[nH]2)cc1 [Compound 151, 3-bromo-5-(2-(4-fluorophenyl)-4-(pyridin-4-yl)-1H-imidazol-5-yl)-1H-pyrrolo[2,3-b]pyridine] | 0.0007
22 | Cc1cc(-c2[nH]c(-c3ccc(F)cc3)nc2-c2ccncc2)cnc1N [Compound 152, 5-(2-(4-fluorophenyl)-4-(pyridin-4-yl)-1H-imidazol-5-yl)-3-methylpyridin-2-amine] | 0.0658
23 | COc1cccc(Nc2nccc(-c3[nH]c(-c4ccc(F)cc4)nc3-c3cnc(N)c(OC)c3)n2)c1 [Compound 153, 4-(4-(6-amino-5-methoxypyridin-3-yl)-2-(4-fluorophenyl)-1H-imidazol-5-yl)-N-(3-methoxyphenyl)pyrimidin-2-amine] | 0.0002
24 | COc1cc(-c2nc(C3=CCOCC3)[nH]c2-c2ccncc2)cnc1N [Compound 154, 5-(2-(3,6-dihydro-2H-pyran-4-yl)-5-(pyridin-4-yl)-1H-imidazol-4-yl)-3-methoxypyridin-2-amine] | 0.0033
25 | COc1cc(-c2nc(C3=CCNCC3)[nH]c2-c2ccncc2)cnc1N [Compound 155, 3-methoxy-5-(5-(pyridin-4-yl)-2-(1,2,3,6-tetrahydropyridin-4-yl)-1H-imidazol-4-yl)pyridin-2-amine] | 0.0162
26 | COc1cc(-c2nc(C3(O)CCN(C)CC3)[nH]c2-c2ccncc2)cnc1N [Compound 156, 4-(4-(6-amino-5-methoxypyridin-3-yl)-5-(pyridin-4-yl)-1H-imidazol-2-yl)-1-methylpiperidin-4-ol] | 0.0093
27 | CN(C)c1cncc(-c2[nH]c(-c3ccc(F)cc3)nc2-c2ccncc2)c1 [Compound 157, 5-(2-(4-fluorophenyl)-4-(pyridin-4-yl)-1H-imidazol-5-yl)-N,N-dimethylpyridin-3-amine] | 0.017
28 | COc1cc(-c2nc(-c3ccc(F)cc3)[nH]c2-c2ccnc(NC(C)C)n2)cnc1N [Compound 158, 4-(4-(6-amino-5-methoxypyridin-3-yl)-2-(4-fluorophenyl)-1H-imidazol-5-yl)-N-isopropylpyrimidin-2-amine] | 0.0051
29 | COc1cc(-c2nc(-c3ccc(F)cc3)[nH]c2-c2ccnc(NCC(C)C)n2)cnc1N [Compound 159, 4-(4-(6-amino-5-methoxypyridin-3-yl)-2-(4-fluorophenyl)-1H-imidazol-5-yl)-N-isobutylpyrimidin-2-amine] | 0.0015
30 | COCC(=O)NCCNc1nccc(-c2nc(-c3ccc(F)cc3)[nH]c2-c2cnc3[nH]cc(Cl)c3c2)n1 [Compound 160, N-(2-(4-(5-(3-chloro-1H-pyrrolo[2,3-b]pyridin-5-yl)-2-(4-fluorophenyl)-1H-imidazol-4-yl)pyrimidin-2-ylamino)ethyl)-2-methoxyacetamide] | 0.0003
31 | COCCNc1nccc(-c2nc(-c3ccc(F)cc3)[nH]c2-c2cnc(N)c(OC)c2)n1 [Compound 161, 4-(5-(6-amino-5-methoxypyridin-3-yl)-2-(4-fluorophenyl)-1H-imidazol-4-yl)-N-(2-methoxyethyl)pyrimidin-2-amine] | 0.0022
32 | COc1cc(-c2nc(C3CCOCC3)[nH]c2-c2ccncc2)cnc1N [Compound 162, 3-methoxy-5-(5-(pyridin-4-yl)-2-(tetrahydro-2H-pyran-4-yl)-1H-imidazol-4-yl)pyridin-2-amine] | 0.0055
33 | COc1cc(-c2[nH]c(-c3ccc(F)cc3)nc2-c2ccnc(NC3CCCC3)n2)cnc1N [Compound 164, 4-(5-(6-amino-5-methoxypyridin-3-yl)-2-(4-fluorophenyl)-1H-imidazol-4-yl)-N-cyclopentylpyrimidin-2-amine] | 0.0163
34 | COc1cc(-c2[nH]c(-c3ccc(F)cc3)nc2-c2ccnc(NC3CCCCC3)n2)cnc1N [Compound 165, 4-(5-(6-amino-5-methoxypyridin-3-yl)-2-(4-fluorophenyl)-1H-imidazol-4-yl)-N-cyclohexylpyrimidin-2-amine] | 0.0483
35 | COCC(=O)NCCNc1nccc(-c2nc(-c3ccc(F)cc3)[nH]c2-c2cnc3[nH]cc(Br)c3c2)n1 [Compound 166, N-(2-(4-(5-(3-bromo-1H-pyrrolo[2,3-b]pyridin-5-yl)-2-(4-fluorophenyl)-1H-imidazol-4-yl)pyrimidin-2-ylamino)ethyl)-2-methoxyacetamide] | 0.0001
36 | COc1cc(-c2[nH]c(-c3ccc4[nH]ncc4c3)nc2-c2ccncc2)cnc1N [Compound 167, 5-(2-(1H-indazol-5-yl)-4-(pyridin-4-yl)-1H-imidazol-5-yl)-3-methoxypyridin-2-amine] | 0.0007
37 | COc1cc(-c2[nH]c(-c3cccc4cccnc34)nc2-c2ccncc2)cnc1N [Compound 168] | 0.0009
38 | COc1cc(-c2[nH]c(-c3cccc4ncccc34)nc2-c2ccncc2)cnc1N [Compound 169, 3-methoxy-5-(4-(pyridin-4-yl)-2-(quinolin-5-yl)-1H-imidazol-5-yl)pyridin-2-amine] | 0.0016

— patent US20100003246A1, “Novel heterocyclic compounds and uses therof” (priority 2008, published 2010)
